# Measurements from patent US6207683A, “Benzocycloheptathiophene compounds” (Bridge Pharma, Inc., priority 1999, dated 2001).
# Counter-ions that a name gives are not always drawn. Like-named read-outs stand apart in the source and are kept apart here.
# What was measured:
# [1] = biological target: T1, histamine H1 -receptors (membranes from bovine cerebellum) (Bos taurus, UniProt P30546); experiment: [^3 H]pyrilamine binding assay, histamine H1-receptors
# T1 construct: membranes from bovine cerebellum; from tissue; host or cells: bovine cerebellum membranes
# Experimental: 1. Binding to histaminergic receptors
# The affinities of the test compounds for histamine H1 -receptors were assessed using the [^3 H]pyrilamine binding assay, modified after Chang et al. Heterogeneity of Histamine H1 -Receptors. J. Neurochem. 1979, 32: 1653-1663 Briefly, membranes from bovine cerebellum were incubated with [^3 H]pyrilamine and the test compound at increasing concentrations. The specific binding of the radioactive ligand to the receptor was defined as the difference between total binding and nonspecific binding, determined in the presence of an excess of unlabelled ligand. IC50 values (concentration required to inhibit 50% of specific binding of [^3 H]pyrilamine) were determined by non linear regression analysis of the competition curves.
# [2] = biological target: T2, muscarinic M1 -receptors (bovine striatal membranes) (Bos taurus, UniProt F1N5C5); experiment: biochemical; type: binding
# T2 sequence (F1N5C5 1-460): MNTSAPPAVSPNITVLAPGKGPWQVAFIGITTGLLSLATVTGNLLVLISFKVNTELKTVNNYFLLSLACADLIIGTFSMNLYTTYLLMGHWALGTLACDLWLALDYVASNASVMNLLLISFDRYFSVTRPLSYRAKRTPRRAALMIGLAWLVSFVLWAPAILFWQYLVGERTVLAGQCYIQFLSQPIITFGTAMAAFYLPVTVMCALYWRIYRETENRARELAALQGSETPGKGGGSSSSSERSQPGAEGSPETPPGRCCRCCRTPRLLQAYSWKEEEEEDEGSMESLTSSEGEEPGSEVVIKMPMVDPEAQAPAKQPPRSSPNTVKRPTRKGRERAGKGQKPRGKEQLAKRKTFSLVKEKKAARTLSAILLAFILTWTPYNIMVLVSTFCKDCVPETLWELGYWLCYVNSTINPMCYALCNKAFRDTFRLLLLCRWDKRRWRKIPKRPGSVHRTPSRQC
# Experimental: 2. Binding to muscarinic receptors
# The affinities of the test compounds for muscarinic M1 -receptors were assessed using the [^3 H]pirenzepine binding assay, modified after Luthin et al. [^3 H]Pirenzepine and [^3 H]QNB binding to brain muscarinic cholinergic receptors. Molec. Pharmac. 1984, 26: 164-169. Briefly, the experiments were carried out on bovine striatal membranes expressing muscarinic M1 -receptors. After incubation with the test article and the proper radioligand and washing, bound radioactivity is determined with a […], using a commercial scintillation cocktail. The specific radioligand binding to each receptor is defined as the difference between total binding and nonspecific binding determined in the presence of an excess of unlabelled ligand. IC50 values (concentrations required to inhibit 50% of specific binding) were determined by non linear regression analysis of the competition curves.
# [3] = system: physostigmine-induced lethality; experiment: Physostigmine-induced lethality test (sedative effects); type: in vivo; settings: survivors of 10 mice 30 min after physostigmine 1.9 mg/kg s.c.; oral treatment 60 min before, mg/kg: Ketotifen 107, Nor-ketotifen 83, Example 2 94, Example 5 108, Astemizole 115
# Experimental: 3. Studies on sedative effects
# The physostigmine-induced lethality test used in these tests is a modification of the sedation test technique reported by COLLIER et al., in Br. J. Pharmac., 1968, 32: 295-310. In short, physostigmine (1.9 mg/kg s.c.) produces 100% lethality when given to grouped mice with 10 animals in each plastic cage (approx. 11×26×13 cm). Mice administered a sedating antihistamine prior to physostigmine are protected and survive. In the present study, test compounds were administered orally 60 minutes prior to physostigmine. The number of survivors were counted 30 minutes after physostigmine administration. The doses in the CNS test were half of the molecular weights of the test compounds, expressed in mg/kg body weight.
# [4] = Sedative activity (general statement); type: in vivo; settings: statement in words
# [5] = inhibition of 50% of specific binding of [^3 H]pyrilamine, bovine cerebellum membranes, read-out: IC50
# [6] = inhibition of 50% of specific [^3 H]pirenzepine binding, bovine striatal membranes, read-out: IC50
# T1 sequence (P30546 whole entry): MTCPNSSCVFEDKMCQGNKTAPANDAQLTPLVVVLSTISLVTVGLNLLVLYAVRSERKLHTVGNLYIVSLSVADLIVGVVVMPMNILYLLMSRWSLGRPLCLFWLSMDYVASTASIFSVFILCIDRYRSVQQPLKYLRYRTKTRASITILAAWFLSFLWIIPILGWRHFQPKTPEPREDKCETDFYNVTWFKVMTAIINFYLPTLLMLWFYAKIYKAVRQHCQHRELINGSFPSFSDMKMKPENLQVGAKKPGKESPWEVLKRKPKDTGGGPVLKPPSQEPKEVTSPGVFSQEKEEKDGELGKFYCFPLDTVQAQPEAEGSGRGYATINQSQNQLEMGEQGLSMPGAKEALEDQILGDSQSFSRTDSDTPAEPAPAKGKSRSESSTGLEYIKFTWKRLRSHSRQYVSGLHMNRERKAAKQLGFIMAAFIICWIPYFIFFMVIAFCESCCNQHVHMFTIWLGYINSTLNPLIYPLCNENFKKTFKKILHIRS
Structure (SMILES),"IC50 [1, 5] [nM]",Survived [3],"IC50 [2, 6] [nM]",further results
"OC1Cc2ccccc2C(=C2CCNCC2)c2ccsc21 (stereo not drawn) [10-OH-NORKETOTIFEN, 10-OH-norketotifen]",113,–,–,–
CN1[C@@H]2CC[C@H]1C[C@@H](OC(=O)C(CO)c1ccccc1)C2 (stereo partly drawn) [ATROPINE Sulfate],–,–,–,IC50 [2]: 0.574 nM
COc1ccc(CCN2CCC(Nc3nc4ccccc4n3Cc3ccc(F)cc3)CC2)cc1 [Astemizole],–,1/10,–,–
O=C1Cc2ccccc2C(=C2CCN(CCO)CC2)c2ccsc21 [Example 2],5.85,3/10,235,–
O=C(O)COCCN1CCC(=C2c3ccccc3CC(=O)c3sccc32)CC1 [Example 5],69.5,0/10,880,–
"CN1CCC(=C2c3ccccc3CC(=O)c3sccc32)CC1 [Ketotifen, ketotifen]",–,9/10,–,sedative activity / sedative side effects [4]: profound sedative side effects
"O=C1Cc2ccccc2C(=C2CCNCC2)c2ccsc21 [Norketotifen, 4-(4-piperidylidene)-9,10-dihydro-4 H-benzo[4,5]cyclo-hepta[1,2-] thiophene-10-one]",–,3/10,261,IC50 [1]: 43.6 nM
Cc1ccc(/C(=C\CN2CCCC2)c2ccccn2)cc1 [TRIPROLIDINE HCl],14.1,–,–,–
